Test results reported in patent publication US6706663B2, “Herbicidal 3-heterocyclic substituted benzisothiazole and benzisoxazole compounds” (Wyeth, priority 2000, dated 2004).

Assays:
CYPIR (Cyperus iria) = assay: Flooded paddy, preemergence weed control; type: in vivo; settings: rated 3-4 weeks after treatment, 0-9 rating scale
Method: (§1) Results of herbicide evaluation are expressed on a rating scale (0-9). The scale is based upon a visual observation of plant stand, vigor, malformation, size, chlorosis and overall plant appearance as compared with a control.
(§2) Preemergence herbicidal activity under flooded paddy conditions is determined as follows: plant seeds or propagating organs are planted in the top 0.5 cm of silt loam soil in 32 oz. plastic containers with a diameter of 10.5 cm and no drainage holes. Water is added to these containers and maintained at 1.5 to 3 cm above the soil surface for the duration of the experiment. […] The treated containers are placed on greenhouse benches and cared for in accordance with conventional greenhouse procedures.

ZEAMX (Corn, Field) [1] = assay: Preemergence herbicidal evaluation; type: in vivo, Zea mays, L.; settings: rated 4-5 weeks after treatment
Excerpt: as §1
(§3) The preemergence herbicidal activity of the test compounds of the present invention is exemplified by the following tests in which the seeds of a variety of monocotyledonous and dicotyledonous plants are separately mixed with potting soil and planted on top of approximately one inch of soil in separate pint cups. […] The treated cups are then placed on greenhouse benches, watered and cared for in accordance with conventional greenhouse procedures. From four to five weeks after treatment, the tests are terminated and each cup is examined and rated according to the rating system provided in Example 87. The plant species used and the compounds evaluated are the same as those shown in Example 87.

SETVI (Setaria viridis) [2] = assay: Postemergence herbicidal evaluation; type: in vivo, (L.) Beau; settings: postemergence
Method: In the tests, seedling plants are grown in jiffy flats for about two weeks. The test compounds are dispersed in 50/50 acetone/water mixtures containing 0.5% TWEEN® 20, a polyoxyethylene sorbitan monolaurate surfactant of Atlas Chemical Industries, in sufficient quantities to provide the equivalent of about 0.0040 kg to 1.000 kg per hectare of active compound when applied to the plants through a spray nozzle operating at 40 psi for a predetermined time. After spraying, the plants are placed on greenhouse benches and are cared for in accordance with conventional greenhouse procedures. From four to five weeks after treatment, the seedling plants are examined and rated according to the rating system set forth below. Where more than one test is involved for a given compound, the data are averaged.
as §1

[3] = system: IPOHE (Ipomoea hederacea); assay: Postemergence herbicidal evaluation; type: in vivo, (L.) Jacq.; settings: postemergence
Method: (§4) In the tests, seedling plants are grown in jiffy flats for about two weeks. […] After spraying, the plants are placed on greenhouse benches and are cared for in accordance with conventional greenhouse procedures. From four to five weeks after treatment, the seedling plants are examined and rated according to the rating system set forth below. Where more than one test is involved for a given compound, the data are averaged.
as §1

[4] = system: GLXMAW (Soybean, Williams); assay: Preemergence herbicidal evaluation; type: in vivo, Glycine max, (L.) Merr. cv Williams; settings: rated 4-5 weeks after treatment
Excerpt: as §1, §3

[5] = system: ECHORC (Echinochloa oryzoides); assay: Flooded paddy, preemergence weed control; type: in vivo, Echinochloa oryzoides (Ard.) Fritsch.; settings: rated 3-4 weeks after treatment, 0-9 rating scale
Method: as §1, §2

[6] = system: MOOVA (Monochoria vaginalis); assay: Flooded paddy, preemergence weed control; type: in vivo, Presl.; settings: rated 3-4 weeks after treatment, 0-9 rating scale
Method: as §1, §2

[7] = system: TRZAWR (Wheat, Winter, cv Riband); assay: Postemergence herbicidal evaluation; type: in vivo, Triticum aestivum; settings: postemergence
Method: as §4, §1

ZEAMX (Corn, Field) [8] = assay: Postemergence herbicidal evaluation; type: in vivo, Zea mays, L.; settings: postemergence
Method: as §4, §1

[9] = system: ABUTH (Abutilon theophrasti); assay: Preemergence herbicidal evaluation; type: in vivo, Medic.; settings: rated 4-5 weeks after treatment
Excerpt: as §1, §3

ORYSAT (Rice, Tebonnet) [10] = assay: Preemergence herbicidal evaluation; type: in vivo, Oryza sativa, (L.) Tebonnet; settings: rated 4-5 weeks after treatment
Excerpt: as §1, §3

[11] = system: IPOHE (Ipomoea hederacea); assay: Preemergence herbicidal evaluation; type: in vivo, (L.) Jacq.; settings: rated 4-5 weeks after treatment
Excerpt: as §1, §3

ORYSAT (Rice, Tebonnet) [12] = assay: Flooded paddy, post-transplant rice tolerance; type: in vivo, Oryza sativa, (L.) Tebonnet; settings: flooded paddy, post-transplant rice, rated 3-4 weeks after treatment, 0-9 rating scale
Method: as §1
The tolerance of transplanted rice to post-transplanted herbicide application is determined as follows: two ten-day-old rice seedlings (cv. Tebonnet) are transplanted into silt loam soil in 32 oz. plastic containers with a diameter of 10.5 cm and no drainage holes. After transplanting, the containers are flooded and the water level is maintained at 1.5 to 3 cm above the soil surface. […] The treated containers are placed on greenhouse benches, watered such that the water level is maintained as stated above, and cared for in accordance with conventional greenhouse procedures.

[13] = system: ECHCG (Echinochloa crus-galli); assay: Preemergence herbicidal evaluation; type: in vivo, (L.) Beau; settings: rated 4-5 weeks after treatment
Excerpt: as §1, §3

SETVI (Setaria viridis) [14] = assay: Preemergence herbicidal evaluation; type: in vivo, (L.) Beau; settings: rated 4-5 weeks after treatment
Excerpt: as §1, §3

[15] = system: ECHCG (Echinochloa crus-galli); assay: Postemergence herbicidal evaluation; type: in vivo, (L.) Beau; settings: postemergence
Method: as §4, §1

[16] = system: ABUTH (Abutilon theophrasti); assay: Postemergence herbicidal evaluation; type: in vivo, Medic.; settings: postemergence
Method: as §4, §1

[17] = system: AMBEL (Ambrosia artemisifolia); assay: Preemergence herbicidal evaluation; type: in vivo, L.; settings: rated 4-5 weeks after treatment
Excerpt: as §1, §3

[18] = system: CHEAL (Chenopodium album); assay: Preemergence herbicidal evaluation; type: in vivo, L.; settings: rated 4-5 weeks after treatment
Excerpt: as §1, §3

[19] = system: CASOB (Cassia obtusifolia); assay: Preemergence herbicidal evaluation; type: in vivo, L.; settings: rated 4-5 weeks after treatment
Excerpt: as §1, §3

[20] = system: TRZAWR (Wheat, Winter, cv Riband); assay: Preemergence herbicidal evaluation; type: in vivo, Triticum aestivum; settings: rated 4-5 weeks after treatment
Excerpt: as §1, §3

ORYSAT (Rice, Tebonnet) [21] = assay: Postemergence herbicidal evaluation; type: in vivo, Oryza sativa, (L.) Tebonnet; settings: postemergence
Method: as §4, §1

[22] = system: GLXMAW (Soybean, Williams); assay: Postemergence herbicidal evaluation; type: in vivo, Glycine max, (L.) Merr. cv Williams; settings: postemergence
Method: as §4, §1

[23] = system: SAGPY (Sagittaria pygmaea); assay: Flooded paddy, preemergence weed control; type: in vivo, L.; settings: rated 3-4 weeks after treatment, 0-9 rating scale
Method: as §1, §2

GALAP (Galium aparine) [24] = assay: Postemergence herbicidal evaluation; type: in vivo; settings: postemergence
Method: as §4, §1

GALAP (Galium aparine) [25] = assay: Preemergence herbicidal evaluation; type: in vivo; settings: rated 4-5 weeks after treatment
Excerpt: as §1, §3

[26] = system: AMBEL (Ambrosia artemisifolia); assay: Postemergence herbicidal evaluation; type: in vivo, L.; settings: postemergence
Method: as §4, §1

[27] = system: CHEAL (Chenopodium album); assay: Postemergence herbicidal evaluation; type: in vivo, L.; settings: postemergence
Method: as §4, §1

[28] = system: CASOB (Cassia obtusifolia); assay: Postemergence herbicidal evaluation; type: in vivo, L.; settings: postemergence
Method: as §4, §1

C[C@@H]1OC(c2nsc3cc(F)c(-n4c(=O)cc(C(F)(F)F)n(C)c4=O)cc23)O[C@@H]1C (stereo partly drawn) [Compound 63, 3-[3-[(4R,5S)-4,5-dimethyl-1,3-dioxolan-2-yl]-6-fluoro-1,2-benzisothiazol-5-yl]-1-methyl-6-(trifluoromethyl)uracil]
7.0: SETVI herbicidal rating (SETVI (Setaria viridis) [2]; rate 0.0320 kg/ha) | herbicidal rating, ORYSAT (rice tolerance) (ORYSAT (Rice, Tebonnet) [12]; rate 0.0080 kg/ha) | ECHCG herbicidal rating ([15]; rate 0.0620 kg/ha) | Preemergence herbicidal rating TRZAWR ([20]; Rate 0.0620 kg/ha) | herbicidal rating, SAGPY ([23]; rate 0.0320 kg/ha)
9.0: herbicidal rating, CYPIR (CYPIR (Cyperus iria); rate 0.0320 kg/ha) | herbicidal rating, CYPIR (CYPIR (Cyperus iria); rate 0.1250 kg/ha) | SETVI herbicidal rating (SETVI (Setaria viridis) [2]; rate 0.0620 kg/ha) | IPOHE herbicidal rating ([3]; rate 0.0320 kg/ha) | IPOHE herbicidal rating ([3]; rate 0.0620 kg/ha) | Preemergence herbicidal rating GLXMAW ([4]; Rate 0.0620 kg/ha) | herbicidal rating, ECHORC ([5]; rate 0.0080 kg/ha) | herbicidal rating, ECHORC ([5]; rate 0.0320 kg/ha) | herbicidal rating, ECHORC ([5]; rate 0.1250 kg/ha) | herbicidal rating, MOOVA ([6]; rate 0.0320 kg/ha) | herbicidal rating, MOOVA ([6]; rate 0.1250 kg/ha) | Preemergence herbicidal rating ABUTH ([9]; Rate 0.0620 kg/ha) | Preemergence herbicidal rating IPOHE ([11]; Rate 0.0620 kg/ha) | herbicidal rating, ORYSAT (rice tolerance) (ORYSAT (Rice, Tebonnet) [12]; rate 0.0320 kg/ha) | herbicidal rating, ORYSAT (rice tolerance) (ORYSAT (Rice, Tebonnet) [12]; rate 0.1250 kg/ha) | Preemergence herbicidal rating ECHCG ([13]; Rate 0.0620 kg/ha) | Preemergence herbicidal rating SETVI (SETVI (Setaria viridis) [14]; Rate 0.0620 kg/ha) | ABUTH herbicidal rating ([16]; rate 0.0320 kg/ha) | ABUTH herbicidal rating ([16]; rate 0.0620 kg/ha) | Preemergence herbicidal rating AMBEL ([17]; Rate 0.0620 kg/ha) | Preemergence herbicidal rating CHEAL ([18]; Rate 0.0620 kg/ha) | Preemergence herbicidal rating CASOB ([19]; Rate 0.0620 kg/ha) | GLXMAW herbicidal rating ([22]; rate 0.0620 kg/ha) | herbicidal rating, SAGPY ([23]; rate 0.1250 kg/ha) | GALAP herbicidal rating (GALAP (Galium aparine) [24]; rate 0.0320 kg/ha) | GALAP herbicidal rating (GALAP (Galium aparine) [24]; rate 0.0620 kg/ha) | Preemergence herbicidal rating GALAP (GALAP (Galium aparine) [25]; Rate 0.0620 kg/ha) | AMBEL herbicidal rating ([26]; rate 0.0320 kg/ha) | AMBEL herbicidal rating ([26]; rate 0.0620 kg/ha) | CHEAL herbicidal rating ([27]; rate 0.0320 kg/ha) | CHEAL herbicidal rating ([27]; rate 0.0620 kg/ha) | CASOB herbicidal rating ([28]; rate 0.0320 kg/ha) | CASOB herbicidal rating ([28]; rate 0.0620 kg/ha)
3.0: herbicidal rating, MOOVA ([6]; rate 0.0080 kg/ha) | herbicidal rating, SAGPY ([23]; rate 0.0080 kg/ha)
5.0: TRZAWR herbicidal rating ([7]; rate 0.0320 kg/ha) | ORYSAT herbicidal rating (ORYSAT (Rice, Tebonnet) [21]; rate 0.0320 kg/ha)
6.5: GLXMAW herbicidal rating ([22]; rate 0.0320 kg/ha)
6.0: TRZAWR herbicidal rating ([7]; rate 0.0620 kg/ha) | ZEAMX herbicidal rating (ZEAMX (Corn, Field) [8]; rate 0.0620 kg/ha) | ECHCG herbicidal rating ([15]; rate 0.0320 kg/ha) | ORYSAT herbicidal rating (ORYSAT (Rice, Tebonnet) [21]; rate 0.0620 kg/ha)
8.0: Preemergence herbicidal rating ZEAMX (ZEAMX (Corn, Field) [1]; Rate 0.0620 kg/ha) | Preemergence herbicidal rating ORYSAT (ORYSAT (Rice, Tebonnet) [10]; Rate 0.0620 kg/ha)
5.5: ZEAMX herbicidal rating (ZEAMX (Corn, Field) [8]; rate 0.0320 kg/ha)
4.0: herbicidal rating, CYPIR (CYPIR (Cyperus iria); rate 0.0080 kg/ha)

Cn1c(C(F)(F)F)cc(=O)n(-c2ccc3snc(C4OCC(CBr)O4)c3c2)c1=O (centres unmarked) [Compound 79, 3-[3-[4-(bromomethyl)-1,3-dioxolan-2-yl]-1,2-benzisothiazol-5-yl]-1-methyl-6-(trifluoromethyl)uracil]
4.0: ECHCG herbicidal rating ([15]; rate 0.0620 kg/ha) | GALAP herbicidal rating (GALAP (Galium aparine) [24]; rate 0.0620 kg/ha)
3.5: ZEAMX herbicidal rating (ZEAMX (Corn, Field) [8]; rate 0.0620 kg/ha) | ORYSAT herbicidal rating (ORYSAT (Rice, Tebonnet) [21]; rate 0.0620 kg/ha)
3.0: herbicidal rating, SAGPY ([23]; rate 0.1250 kg/ha)
9.0: herbicidal rating, CYPIR (CYPIR (Cyperus iria); rate 0.1250 kg/ha) | Preemergence herbicidal rating GLXMAW ([4]; Rate 0.2500 kg/ha) | herbicidal rating, ECHORC ([5]; rate 0.1250 kg/ha) | herbicidal rating, MOOVA ([6]; rate 0.1250 kg/ha) | Preemergence herbicidal rating ABUTH ([9]; Rate 0.2500 kg/ha) | Preemergence herbicidal rating ECHCG ([13]; Rate 0.2500 kg/ha) | Preemergence herbicidal rating SETVI (SETVI (Setaria viridis) [14]; Rate 0.2500 kg/ha) | ABUTH herbicidal rating ([16]; rate 0.0620 kg/ha) | Preemergence herbicidal rating AMBEL ([17]; Rate 0.2500 kg/ha) | Preemergence herbicidal rating CHEAL ([18]; Rate 0.2500 kg/ha) | Preemergence herbicidal rating CASOB ([19]; Rate 0.2500 kg/ha) | Preemergence herbicidal rating GALAP (GALAP (Galium aparine) [25]; Rate 0.2500 kg/ha) | AMBEL herbicidal rating ([26]; rate 0.0620 kg/ha) | CHEAL herbicidal rating ([27]; rate 0.0620 kg/ha)
6.0: SETVI herbicidal rating (SETVI (Setaria viridis) [2]; rate 0.0620 kg/ha) | GLXMAW herbicidal rating ([22]; rate 0.0620 kg/ha) | CASOB herbicidal rating ([28]; rate 0.0620 kg/ha)
7.0: Preemergence herbicidal rating ZEAMX (ZEAMX (Corn, Field) [1]; Rate 0.2500 kg/ha) | Preemergence herbicidal rating IPOHE ([11]; Rate 0.2500 kg/ha) | herbicidal rating, ORYSAT (rice tolerance) (ORYSAT (Rice, Tebonnet) [12]; rate 0.1250 kg/ha)
2.5: TRZAWR herbicidal rating ([7]; rate 0.0620 kg/ha)
8.0: IPOHE herbicidal rating ([3]; rate 0.0620 kg/ha) | Preemergence herbicidal rating ORYSAT (ORYSAT (Rice, Tebonnet) [10]; Rate 0.2500 kg/ha) | Preemergence herbicidal rating TRZAWR ([20]; Rate 0.2500 kg/ha)
